Where two headings read alike, the source gives them in different places. Bridge positions count the residues as written; N and C are the ends. Square brackets hold non-standard residues; d marks the D form. Ends that are not written are not given here. Peptide text beside a SMILES is read from it. I, II: the chains in the order shown. * marks the point of attachment. X1 = CCCCCCCCCCCC(=O)N[C@@H](CCCN)C(=O)N[C@@H](CCCN)C(=O)N[C@@H](CS*)C(N)=O; Lauroyl = CCCCCCCCCCCC(=O)*; Orn = NCCC[C@H](N)C(=O)O

One data set has as its system S. aureus ATCC 6538. The format is cell-based, Staphylococcus aureus. As to the method:
(§1) The reference strains were supplied by the Polish Collection of Microorganisms (Polish Academy of Sciences, Institute of Immunology and Experimental Therapy, Wroclaw, Poland). Minimal inhibitory concentration (MIC) was determined by the microbroth dilution method outlined by the National Committee for Clinical Laboratory Standards ([2003]). The following microbial strains were tested: Gram-positive: Rhodococcus equi ATCC 6939, Staphylococcus epidermidis, S. aureus ATCC 6538, Streptococcus pyogenes and Enterococcus faecalis; Gram-negative: E. coli ATCC 8739, Pseudomonas aeruginosa and fungi: C. albicans ATCC10231. Bacteria were suspended in Mueller–Hinton II broth (Sigma-Aldrich) at initial inocula of 5 × 10^5 cfu (colony-forming units)/mL, while the Sabouraud 5 % dextrose broth of a pH of 7.4 (Sigma-Aldrich) was used for fungi (at initial inoculum of 5 × 10^3 cfu/mL). Microbial cells in polystyrene 96-well plates were exposed to the peptides at adequate concentrations (range 1–512 μg/mL) for 18 h at 37 °C (bacterial strains) or for 48 h at 25 °C (fungi). MIC was taken as the lowest drug concentration at which observable growth was inhibited. Experiments were performed in triplicate on three different days.

In the next data set the test system is E. coli ATCC 8739. Format: cell-based, Escherichia coli. The protocol:
as §1

For a further data set, the system named is Enterococcus faecalis. The format is cell-based. The protocol: as §1
A further data set relates to Pseudomonas aeruginosa. Format: cell-based. The protocol: as §1
Data set [1] concerns Rhodococcus equi ATCC 6939. The format is cell-based. The protocol:
as §1

For data set [2], the system named is Staphylococcus epidermidis. The format is cell-based. As to the method:
as §1

A further data set has as its system Streptococcus pyogenes. Format: cell-based. As to the method:
as §1

Another data set relates to C. albicans ATCC10231. The format is cell-based, Candida albicans. The protocol: as §1
The subject of the next data set is human red blood cells. Briefly: Haemolysis assay. The format is cell-based. Particulars: human red blood cells 4 % [v/v] in PBS, 2 h at 37 °C, range 1-512 µg/mL, assessed visually; 1 % Triton positive control. As to the method: The haemolytic activity of the peptides was tested against human red blood cells, essentially as described previously (Kamysz et al. [2007]). Fresh human blood was collected into tubes containing EDTA as anticoagulant. Red blood cells were separated by centrifugation at 500×g for 12 min at room temperature and the plasma was aspirated. Erythrocytes were washed three times with PBS, separated by centrifugation (500×g, 12 min) and resuspended in PBS. Peptides I–V were serially diluted in PBS (range 1–512 μg/mL) and 50 μL was added to 50 μL of the erythrocyte suspension. The final concentration of red blood cells was 4 % [v/v]. The results were assessed visually after incubation for 2 h at 37 °C. As a positive control, 1 % Triton was used, whereas PBS served as a negative control.

Take “GRRRRSVQWCA-NH2 [Peptide I, hLF(1–11)–NH2]”: the “Antimicrobial activity (MIC)” value amounted to 64 µg/mL in the data set on S. aureus ATCC 6538 (Staphylococcus aureus, Mueller-Hinton II broth, 5 × 10^5 cfu/mL, 18 h at 37 °C, range 1-512 µg/mL, triplicate on three different days); 512 µg/mL in the data set on E. coli ATCC 8739 (Escherichia coli, Mueller-Hinton II broth, 5 × 10^5 cfu/mL, 18 h at 37 °C, range 1-512 µg/mL, triplicate on three different days); 256 µg/mL in the data set with Enterococcus faecalis (Enterococcus faecalis, Mueller-Hinton II broth, 5 × 10^5 cfu/mL, 18 h at 37 °C, range 1-512 µg/mL, triplicate on three different days); 32 µg/mL with Pseudomonas aeruginosa (Pseudomonas aeruginosa, Mueller-Hinton II broth, 5 × 10^5 cfu/mL, 18 h at 37 °C, range 1-512 µg/mL, triplicate on three different days); 16 µg/mL in data set [1] (Rhodococcus equi, Mueller-Hinton II broth, 5 × 10^5 cfu/mL, 18 h at 37 °C, range 1-512 µg/mL, triplicate on three different days); 2 µg/mL in data set [2] (Staphylococcus epidermidis, Mueller-Hinton II broth, 5 × 10^5 cfu/mL, 18 h at 37 °C, range 1-512 µg/mL, triplicate on three different days). For the same compound, the “Antimicrobial activity (MIC)” value with Streptococcus pyogenes (Streptococcus pyogenes, Mueller-Hinton II broth, 5 × 10^5 cfu/mL, 18 h at 37 °C, range 1-512 µg/mL, triplicate on three different days) stood at 2 µg/mL; in the data set on C. albicans ATCC10231 (Candida albicans, Sabouraud 5 % dextrose broth pH 7.4, 5 × 10^3 cfu/mL, 48 h at 25 °C, range 1-512 µg/mL, triplicate on three different days), 128 µg/mL. For the same compound, in the data set on human red blood cells, the Haemolytic activity is above 512 µg/mL.
As for `CCCCCCCCCCCC(=O)N[C@@H](CCCN)C(=O)N[C@@H](CCCN)C(=O)N[C@@H](CS)C(N)=O` [Peptide III, Laur-Orn-Orn-Cys–NH2] (Lauroyl-[Orn]-[Orn]-Cys-NH2), the “Antimicrobial activity (MIC)” value in the data set on S. aureus ATCC 6538 (ATCC 6538, 18 h) is reported as 2 µg/mL; in the data set with E. coli ATCC 8739 (ATCC 8739, 18 h), 8 µg/mL; with Enterococcus faecalis (18 h), 2 µg/mL; in the data set with Pseudomonas aeruginosa (18 h) it was 8 µg/mL; in data set [1] (ATCC 6939, 18 h), 2 µg/mL; in data set [2] (18 h), 2 µg/mL. Also, the “Antimicrobial activity (MIC)” value worked out at 4 µg/mL in the data set with Streptococcus pyogenes (18 h) and 128 µg/mL in the data set on C. albicans ATCC10231 (ATCC10231, 48 h, pH 7.4).
With `CCCCCCCCCCCC(=O)N[C@@H](CCCN)C(=O)N[C@@H](CCCN)C(=O)N[C@@H](CSSC[C@H](NC(=O)[C@H](CCCN)NC(=O)[C@H](CCCN)NC(=O)CCCCCCCCCCC)C(N)=O)C(N)=O` [Peptide IV] (I: Lauroyl-[Orn]-[Orn]-Cys-NH2 / II: Lauroyl-[Orn]-[Orn]-Cys-NH2; disulfide I:3-II:3), the “Antimicrobial activity (MIC)” value in the data set with S. aureus ATCC 6538 (ATCC 6538, 18 h) was found to be 2 µg/mL; with E. coli ATCC 8739 (ATCC 8739, 18 h), 8 µg/mL; in the data set with Enterococcus faecalis (18 h), 4 µg/mL; with Pseudomonas aeruginosa (18 h), 4 µg/mL; in data set [1] (ATCC 6939, 18 h), 1 µg/mL; in data set [2] (18 h) it was 2 µg/mL. Besides, the “Antimicrobial activity (MIC)” value in the data set on Streptococcus pyogenes (18 h) was 2 µg/mL; in the data set on C. albicans ATCC10231 (ATCC10231, 48 h, pH 7.4), above 512 µg/mL.
As for `CCCCCCCCCCCC(=O)N[C@@H](CCCN)C(=O)N[C@@H](CCCN)C(=O)N[C@@H](CSSC[C@H](NC(=O)[C@H](Cc1c[nH]c2ccccc12)NC(=O)[C@H](CCC(N)=O)NC(=O)[C@@H](NC(=O)[C@H](CO)NC(=O)[C@H](CCCNC(=N)N)NC(=O)[C@H](CCCNC(=N)N)NC(=O)[C@H](CCCNC(=N)N)NC(=O)[C@H](CCCNC(=N)N)NC(=O)CN)C(C)C)C(=O)N[C@@H](C)C(N)=O)C(N)=O` [Peptide V] (H-GRRRRSVQWC(X1)A-NH2; N-terminus assumed), the “Antimicrobial activity (MIC)” value in the data set on S. aureus ATCC 6538 (ATCC 6538, 18 h) is listed as 4 µg/mL; in the data set with E. coli ATCC 8739 (ATCC 8739, 18 h), 128 µg/mL; in the data set with Enterococcus faecalis (18 h), 32 µg/mL; in the data set on Pseudomonas aeruginosa (18 h), 8 µg/mL; in data set [1] (ATCC 6939, 18 h), 2 µg/mL; in data set [2] (18 h) it was 1 µg/mL. Moreover, the “Antimicrobial activity (MIC)” value is reported as 2 µg/mL in the data set with Streptococcus pyogenes (18 h) and above 512 µg/mL in the data set on C. albicans ATCC10231 (ATCC10231, 48 h, pH 7.4).
